# Columns and labels:
# Format in all cases: cell-based
# mouse TRPM4 = molecular target: T1, mouse TRPM4 (Mus musculus, UniProt Q7TN37); test: Inside-out patch clamp on TsA-201 cells stably expressing mouse TRPM4; details: for effect of CBA- and NBA-derived compounds on mouse TRPM4 current: 10 μM, applied intracellularly, n ≥ 6
# T1 construct: expressed in transfected cells
# Experimental: (§1) They were kept at 37°C with 5% CO2 in a humidified atmosphere incubator.
# Electrophysiological recordings were performed in the inside-out patch-clamp configuration with patch pipettes (1 and 2 μm tip opening) pulled from 1.5 mm borosilicate glass capillaries (Zeitz-Instruments GmbH, München, Germany) using micropipette puller P 97 (Sutter Instruments, Novato, CA, United States). The tips were polished to have a pipette resistance of 2–4 MΩ in the bath solution. The pipette solution contained (in mM) 150 NaCl, 10 HEPES, and 2 CaCl2 (pH 7.4 with NaOH). The bath solution contained (in mM) 150 NaCl, 10 HEPES, 2 HEDTA (pH 7.4 with NaOH), and no Ca^2+. […] Bath solution with 0 and 300 μM Ca^2+ concentrations were applied to cells by a modified rapid solution exchanger (Perfusion Fast-Step SF-77B; Warner Instruments Corp. CT, United States). […] Data were low-pass filtered at 5 kHz and sampled at 10 kHz. Experiments were performed at room temperature (20–25°C). The holding potential was 0 mV. For measuring steady-state currents, the stimulation protocol consisted of two sweeps with a total duration of 1,000 ms, the first sweep at −100 mV for 500 ms and the second at +100 mV for 500 ms (Figure 2). […] The I-V relationships (IV curves) have been determined using an I-V protocol from −100 mV to +100 mV for 500 ms with a difference of 20 mV between each sweep (cf. Figure 6). The IV curves have been normalised to the maximum current. No fit was applied.
# After obtaining inside-out membrane patches, the presence of TRPM4 in the patch membrane was confirmed by switching the perfusion solution without calcium at the intracellular side of the membrane to a solution containing 300 μM calcium, which activates TRPM4 and triggers the current. Once the TRPM4 currents were activated and stabilised for intracellular compound application, the perfusion solution containing 300 μM calcium and either the compound or free adenosine triphosphate (ATP) was applied. For extracellular application, the compounds were added to the […] (pipette) solution.
# Electrophysiology data were analysed using IGOR PRO 6 (WaveMetrics, Lake Oswego, United States), Normalized current percentage inhibition was calculated as follows ([activated current at 300 μM calcium]—[activated current at 300 μM calcium with compound]) * 100/[activated current at 300 µM calcium]. Concentration-response curves were fitted using the Hill equation fit parameter of IGOR (NC = NCmax [Cmpd]nH/([Cmpd]nH + EC50 nH)) where NC is normalized current [Cmpd] is compound concentration and nH is the Hill coefficient. Data are presented as mean ± SEM except for Figures 3 and 7, where the data have been normalised to 100 for the current recorded in the presence of 300 µM calcium only. Statistically significant differences conditions were determined using a non-parametric test with a Mann-Whitney post-test.
# human TRPM4 = molecular target: T2, human TRPM4 (Homo sapiens, UniProt Q8TD43); test: Inside-out patch clamp on TsA-201 cells stably expressing human TRPM4; details: 300 μM calcium, +100 mV
# T2 construct: expressed in transfected cells
# Experimental: as §1
# Electrophysiological recordings were performed in the inside-out patch-clamp configuration with patch pipettes (1 and 2 μm tip opening) pulled from 1.5 mm borosilicate glass capillaries (Zeitz-Instruments GmbH, München, Germany) using micropipette puller P 97 (Sutter Instruments, Novato, CA, United States). The tips were polished to have a pipette resistance of 2–4 MΩ in the bath solution. The pipette solution contained (in mM) 150 NaCl, 10 HEPES, and 2 CaCl2 (pH 7.4 with NaOH). The bath solution contained (in mM) 150 NaCl, 10 HEPES, 2 HEDTA (pH 7.4 with NaOH), and no Ca^2+. […] The I-V relationships (IV curves) have been determined using an I-V protocol from −100 mV to +100 mV for 500 ms with a difference of 20 mV between each sweep (cf. Figure 6). […]
# Electrophysiology data were analysed using IGOR PRO 6 (WaveMetrics, Lake Oswego, United States), Normalized current percentage inhibition was calculated as follows ([activated current at 300 μM calcium]—[activated current at 300 μM calcium with compound]) * 100/[activated current at 300 µM calcium]. […] Data are presented as mean ± SEM except for Figures 3 and 7, where the data have been normalised to 100 for the current recorded in the presence of 300 µM calcium only. […]
# TsA-201 cells = test: Cytotoxicity test (trypan blue cell counting); details: Homo sapiens, tsA201, 24 h, read-out: EC50, concentration of the inhibitor required to induce 50% of cell death
# Experimental: Untransfected TsA-201 cells were seeded in a 96-wells plate at a concentration of 10,000 cells per well with DMEM and incubated at 37°C and 5% CO2 in a humidified atmosphere incubator overnight. […] After incubation, the cells were washed and incubated in 0.01% trypsin-EDTA until the cellular layer was completely detached. Cells were centrifuged down, and the pellet resuspended in 1 ml PBS. Cells were then diluted in 1 part of 0.4% trypan blue and 1-part cell suspension. This mixture was incubated for 3 min at room temperature. Finally, the unstained (viable) and stained (nonviable) cells were counted in the haemocytometer (BRAND® counting chamber BLAUBRAND®, Wertheim, Germany).
# [1] = bath solution, 300 μM calcium, +100 mV
# T1 sequence (Q7TN37 whole entry): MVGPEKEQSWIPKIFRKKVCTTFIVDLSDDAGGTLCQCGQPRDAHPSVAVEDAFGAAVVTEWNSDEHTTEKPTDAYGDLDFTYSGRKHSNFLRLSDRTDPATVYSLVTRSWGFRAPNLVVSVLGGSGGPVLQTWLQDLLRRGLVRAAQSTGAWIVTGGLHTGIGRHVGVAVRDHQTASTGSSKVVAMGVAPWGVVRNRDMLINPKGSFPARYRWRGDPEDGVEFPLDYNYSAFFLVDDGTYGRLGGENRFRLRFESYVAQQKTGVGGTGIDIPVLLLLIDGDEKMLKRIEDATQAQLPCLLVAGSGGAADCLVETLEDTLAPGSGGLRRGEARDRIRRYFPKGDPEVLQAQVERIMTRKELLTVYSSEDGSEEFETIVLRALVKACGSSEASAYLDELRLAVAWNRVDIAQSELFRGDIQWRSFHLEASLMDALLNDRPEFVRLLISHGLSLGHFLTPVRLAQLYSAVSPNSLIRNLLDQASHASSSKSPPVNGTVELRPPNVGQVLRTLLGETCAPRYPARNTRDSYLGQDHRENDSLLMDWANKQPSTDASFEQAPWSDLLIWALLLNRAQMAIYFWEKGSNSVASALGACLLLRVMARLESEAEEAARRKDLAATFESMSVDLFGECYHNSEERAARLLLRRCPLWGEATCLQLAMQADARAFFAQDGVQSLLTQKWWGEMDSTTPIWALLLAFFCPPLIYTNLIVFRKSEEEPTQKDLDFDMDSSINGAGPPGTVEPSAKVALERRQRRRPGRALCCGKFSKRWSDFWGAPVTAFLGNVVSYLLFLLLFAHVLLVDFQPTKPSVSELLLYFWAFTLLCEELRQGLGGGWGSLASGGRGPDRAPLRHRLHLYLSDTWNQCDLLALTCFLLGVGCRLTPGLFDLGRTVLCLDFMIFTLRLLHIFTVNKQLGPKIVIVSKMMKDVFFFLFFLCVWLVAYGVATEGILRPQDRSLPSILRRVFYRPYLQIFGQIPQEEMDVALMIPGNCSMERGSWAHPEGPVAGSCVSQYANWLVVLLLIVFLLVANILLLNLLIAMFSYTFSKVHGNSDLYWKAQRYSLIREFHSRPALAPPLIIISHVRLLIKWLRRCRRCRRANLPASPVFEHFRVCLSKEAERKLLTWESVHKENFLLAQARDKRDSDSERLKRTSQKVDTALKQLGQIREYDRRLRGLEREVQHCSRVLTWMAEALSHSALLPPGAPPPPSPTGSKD
# T2 sequence (Q8TD43 whole entry): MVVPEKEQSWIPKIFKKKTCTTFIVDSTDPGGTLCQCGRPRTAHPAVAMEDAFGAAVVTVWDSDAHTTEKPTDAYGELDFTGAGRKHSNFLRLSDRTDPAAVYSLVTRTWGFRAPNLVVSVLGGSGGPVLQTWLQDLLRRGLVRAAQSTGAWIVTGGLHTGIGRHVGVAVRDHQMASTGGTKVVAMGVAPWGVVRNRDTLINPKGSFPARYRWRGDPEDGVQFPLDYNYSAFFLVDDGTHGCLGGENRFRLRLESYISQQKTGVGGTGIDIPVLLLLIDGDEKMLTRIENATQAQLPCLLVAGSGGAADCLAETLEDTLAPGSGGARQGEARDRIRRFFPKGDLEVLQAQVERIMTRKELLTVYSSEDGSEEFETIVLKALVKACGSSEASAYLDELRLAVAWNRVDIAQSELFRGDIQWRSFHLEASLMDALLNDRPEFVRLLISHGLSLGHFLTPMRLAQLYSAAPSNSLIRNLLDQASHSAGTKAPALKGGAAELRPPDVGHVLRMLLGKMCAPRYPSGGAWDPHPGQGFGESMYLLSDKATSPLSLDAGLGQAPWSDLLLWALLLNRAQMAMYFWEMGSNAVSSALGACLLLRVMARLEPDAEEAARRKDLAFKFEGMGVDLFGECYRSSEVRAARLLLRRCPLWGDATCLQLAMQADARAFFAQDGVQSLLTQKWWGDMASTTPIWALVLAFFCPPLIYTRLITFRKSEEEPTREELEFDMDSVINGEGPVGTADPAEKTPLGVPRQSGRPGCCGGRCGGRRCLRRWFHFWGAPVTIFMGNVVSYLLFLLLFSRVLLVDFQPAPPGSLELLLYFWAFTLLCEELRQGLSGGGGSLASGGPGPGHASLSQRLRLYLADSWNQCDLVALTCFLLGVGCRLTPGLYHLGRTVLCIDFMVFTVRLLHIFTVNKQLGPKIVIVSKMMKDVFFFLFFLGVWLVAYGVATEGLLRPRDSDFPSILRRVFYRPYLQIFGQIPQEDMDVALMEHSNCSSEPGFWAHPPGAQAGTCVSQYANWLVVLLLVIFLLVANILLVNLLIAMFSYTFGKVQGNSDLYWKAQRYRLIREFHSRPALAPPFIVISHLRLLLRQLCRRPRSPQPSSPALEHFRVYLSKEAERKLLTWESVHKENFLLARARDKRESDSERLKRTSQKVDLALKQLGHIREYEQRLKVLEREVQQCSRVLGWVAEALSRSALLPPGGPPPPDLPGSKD
smiles,measurement,setting,value
"O=C(COc1cccc2c1CCCC2)Nc1cc(Cl)ccc1C(=O)O [NBA-d2, 4-chloro-2-(2-((5,6,7,8-tetrahydronaphthalen-1-yl)oxy)acetamido) benzoic acid]",effect of CBA- and NBA-derived compounds on mouse TRPM4 current,mouse TRPM4; [1],could inhibit mouse TRPM4 currents
"O=C(COc1ccc(Cl)c2ccccc12)Nc1cc(Cl)ccc1C(=O)O [NBA-d1, 4-chloro-2-(2-((4-chloronaphthalen-1-yl)oxy)acetamido) benzoic acid]",effect of CBA- and NBA-derived compounds on mouse TRPM4 current,mouse TRPM4; [1],could inhibit mouse TRPM4 currents
Cc1cc(Cl)ccc1OC(C)C(=O)Nc1cc(Cl)ccc1C(=O)O (centres unmarked) [CBA-d1],effect of CBA- and NBA-derived compounds on mouse TRPM4 current,mouse TRPM4; [1],did not decrease the mouse TRPM4 currents
"Nc1ncnc2c1ncn2[C@@H]1O[C@H](COP(=O)(O)OP(=O)(O)OP(=O)(O)O)[C@@H](O)[C@H]1O [ATP, adenosine triphosphate]",IC50,"human TRPM4; inside-out patch, bath solution, Hill fit, n = 6, read-out: IC50 on human TRPM4 current, intracellular application",800 nM
same,IC50,"mouse TRPM4; inside-out patch, bath solution, 300 μM calcium, +100 mV, Hill fit, n = 6, read-out: IC50 on mouse TRPM4 current, intracellular application",1400 nM
Oc1cc2ccccc2c2ccccc12 [9-phenanthrol],effect on human TRPM4 sodium current,"human TRPM4; 30 μM, extracellular or intracellular application",inhibited human TRPM4 sodium current with a similar efficacy independently of the application side
same,concentration dependence of potentiation of mouse TRPM4 current,"mouse TRPM4; 0.1 μM versus 100 μM, intracellular application, n = 6",more pronounced with low concentrations
same,"effect on mouse TRPM4 current, intracellular application","mouse TRPM4; 30 μM in bath solution, 300 μM calcium, +100 mV",increased the current
same,"effect on mouse TRPM4 current, extracellular application","mouse TRPM4; 30 μM in pipette solution, 300 μM calcium, +100 mV",decreased the mouse TRPM4 current
same,calcium dependence of the increase of mouse TRPM4 current,"mouse TRPM4; 30 μM, intracellular application, with or without 300 μM calcium",observed only in the presence of 300 μM calcium
same,EC50,TsA-201 cells,~20000 nM

# From paper PMC8321095, “Species-Specific Effects of Cation Channel TRPM4 Small-Molecule Inhibitors” (Frontiers in Pharmacology, 2021)
